# According to patent US20050009913A1, “Method for inactivating bacteria and leukocytes in thrombocyte suspensions” (priority 2001, published 2005):
# Assays:
# [1] = test system: Staphylococcus aureus; assay: Photoinactivation of Staphylococcus aureus in TC (colony forming assay); format: cell-based; details: 1 mM delta-Ala
# Description: (§1) In the experiments described, TC was used which had been obtained from the buffy coats of donor blood and which was suspended in plasma or in a conventional storage medium (T-sol) with approximately 40% plasma. A system fitted with xenon lamps and in which the emitted UV fraction was masked out by a window glass filter was used for the exposure. Staphylococcus (S.) epidermidis was generally used as the test bacterium. Bacteria titres were determined using a colony forming assay. These are given in “colony forming units per ml” (CFU/ml).
# (§2) In the experiments on the inactivation of bacteria TC aliquots of respectively 60 ml located in PVC storage bags having a nominal volume of 500 ml were treated. After adding delta-Ala or the methyl ester of delta-Ala (see Table 1) the samples were pre-incubated for one hour at room temperature in the thrombocyte rotator and then exposed to light. In the experiments on the inactivation of leukocytes the samples were pre-incubated overnight (i.e., for approximately 16-20 h) or for 4 hours. The light energy deposited in the samples is given in kilojoules per m^2 (kJ/m^2). 3000 kJ/m^2 corresponds to an exposure time of about one hour. Each experiment was carried out at least twice.
# [2] = test system: thrombocytes; assay: Functional in-vitro properties of TC after delta-Ala and exposure to light (hypotonic shock reaction, collagen-induced aggregation); format: cell-based; details: after treatment with delta-Ala and subsequent exposure to light
# [3] = test system: S. epidermidis; assay: Photoinactivation of S. epidermidis in TC (colony forming assay); format: cell-based, Staphylococcus epidermidis; details: for Bacteria titre after light, Exp. 1 / Bacteria titre after light, Exp. 2: compound 2 mM, light energy input 3000 kJ/m^2
# Description: as §1, §2
# In order to determine the quantity of light sufficient to largely inactivate S. epidermidis, i.e., by at least 2 log10 grades, the following experiments were carried out: 1000 to 1500 CFU/ml S. epidermidis was added to TC, either in storage medium having a plasma content of approximately 40% or in plasma; delta-Ala was then added in a concentration of 0.25 mM (plasma-reduced TC) or 1 mM (TC with approximately 100% plasma). After pre-incubating for one hour at room temperature, the samples were exposed to different amounts of light. The results are plotted in FIGS. 3 and 4.
# [4] = test system: T lymphocytes; assay: Photoinactivation of T lymphocytes in TC (Con A proliferation assay, BRDU incorporation); format: cell-based; details: pre-incubation approx. 16 h, light energy input 2000 kJ/m^2 (FIG. 5)
# Description: as §2
# [5] = test system: Pseudomonas aeroginosa; assay: Photoinactivation of Pseudomonas aeroginosa in TC (colony forming assay); format: cell-based; details: 1 mM delta-Ala
# Description: as §1, §2
# [6] = test system: Serratia marescens; assay: Photoinactivation of Serratia marescens in TC (colony forming assay); format: cell-based; details: 1 mM delta-Ala
# Description: as §1, §2
# [7] = test system: Escherichia coli; assay: Photoinactivation of Escherichia coli in TC (colony forming assay); format: cell-based; details: 1 mM delta-Ala
# Description: as §1, §2
# [8] = test system: Enterobacter cloacae; assay: Photoinactivation of Enterobacter cloacae in TC (colony forming assay); format: cell-based; details: 1 mM delta-Ala
# Description: as §1, §2
# [9] = test system: Yersinia enterocolitica; assay: Photoinactivation of Yersinia enterocolitica in TC (colony forming assay); format: cell-based; details: 1 mM delta-Ala
# Description: as §1, §2
# [10] = after exposure, 1500 kJ/m^2, average of two experiments
# [11] = before exposure, average of two experiments
smiles,measurement,setting,value
"NCC(=O)CCC(=O)O [Delta-Ala, 6-aminolevulinic acid]",Reduction of infectious titre,[1]; 1500 kJ/m^2,~97%
same,Bacteria titre after exposure,[1]; [10],51 CFU/ml
same,Bacteria titre before exposure,[1]; [11],2000 CFU/ml
same,Functional in-vitro properties of TC and other thrombocyte parameters after treatment,[2],had not changed
same,"Bacteria titre after light, Exp. 1",[3]; TC in 100% plasma,5 CFU/ml
same,"Bacteria titre after light, Exp. 2",[3]; TC in 100% plasma,3.5 CFU/ml
same,Bacteria titre after exposure,"[3]; TC, 1 mM delta-Ala, after exposure, 1500 kJ/m^2, average of two experiments",2 CFU/ml
same,Bacteria titre before exposure,"[3]; TC, 1 mM delta-Ala, before exposure, average of two experiments",2440 CFU/ml
same,delta-Ala concentration sufficient for inactivation,"[3]; plasma-reduced TC, light energy input 3000 kJ/m^2 (FIG. 2)",≤ 0.1 mM
same,Light energy to be irradiated for extensive inactivation of the bacteria,"[3]; thrombocytes suspended in 100% plasma, 1 mM delta-Ala, pre-incubation one hour (FIG. 4)",approximately 3000 kJ/m^2
same,Required concentration of delta-Ala for photoinactivation of T lymphocytes,[4],higher than 1 mM
same,Bacteria titre after exposure,[5]; [10],1 CFU/ml
same,Bacteria titre before exposure,[5]; [11],700 CFU/ml
same,Bacteria titre after exposure,[6]; [10],1 CFU/ml
same,Bacteria titre before exposure,[6]; [11],2500 CFU/ml
same,Bacteria titre after exposure,[7]; [10],3 CFU/ml
same,Bacteria titre before exposure,[7]; [11],11300 CFU/ml
same,Reduction of infectious titre,[8]; 1500 kJ/m^2,approximately 95%
same,Bacteria titre after exposure,[8]; [10],1280 CFU/ml
same,Bacteria titre before exposure,[8]; [11],24500 CFU/ml
same,Bacteria titre after exposure,[9]; [10],1 CFU/ml
same,Bacteria titre before exposure,[9]; [11],4650 CFU/ml
"COC(=O)CCC(=O)CN [Methyl-Ala, delta-Ala methyl ester]",Efficacy of inactivation of S. epidermidis compared with delta-Ala,"[3]; TC in 100% plasma, 2 mM, 3000 kJ/m^2 (Table 1)",the same efficacy
same,"Bacteria titre after light, Exp. 1",[3]; TC in 100% plasma,1.5 CFU/ml
same,"Bacteria titre after light, Exp. 2",[3]; TC in 100% plasma,4 CFU/ml
